# From patent US5326788A, “Biological fluid purification system” (priority 1992, dated 1994)
# Tests used:
# HIV-1 = assay: Syncytia assay, H9 cells infected with IIIb isolate of HIV co-cultured with Supt-1 cells; type: cell-based; details: 24 hours
# Method: (§1) In order to assess the effects of Hy and Ps on the ability of HIV to form syncytia, the following experiments were performed. For the analysis of HIV-1, an entry syncytia assay was performed by co-culturing H9 cells (described in Popovic, M. et al. Science 224: 497-500, 1984) infected with the IIIb isolate of HIV with uninfected Supt-1 cells (Walker, B. D. et al. Proc. Nat. Acad. Sci. (USA) 84: 8120-8124, 1987) as the target cell. HIV-2 was tested using HUT78 cells (obtained from the National Institute of Health by reference to Depository Catalog, Reagent Program, Bethesda, Md.) infected with the ROD-2 isolate of HIV-2 co-cultured with uninfected H9 target cells. The infected cells were plated in 96 well plates (10^4 cells per well in RPM1 1640 medium with 10% fetal calf serum) and incubated with or without dilutions of Ps or Hy for 30 minutes at 37° C. 1×10^5 target cells were then added per well and the number of syncytia were quantitatively and qualitatively determined after 24 hours.
# HIV [1] = assay: Inactivation of HIV from blood of sero-positive patient, reverse transcriptase activity after culture with H9 cells; type: cell-based, Human Immunodeficiency Virus (HIV); details: Human immunodeficiency virus 1, H9, 1 h, read-out: concentration giving complete inactivation of HIV (no reverse transcriptase detected), 1 hour at 37° C., H9 cells
# Method: In order to show the effectiveness of the compounds of the present invention in the inactivation of HIV, blood was obtained from an HIV sero-positive patient and treated with hypericin and pseudohypericin at various concentrations for 1 hour at 37° C. and incubated with uninfected H9 cells in culture. Thereafter, reverse transcriptase enzymatic activity was determined as disclosed in U.S. patent application Ser. Nos. 084,008 and 172,064 filed Aug. 10, 1987 and Mar. 23, 1988, respectively.
# (§2) In FIG. 1, open squares represent hypericin-treated and pluses represent pseudohypericin treated HIV. […] Inactivation of the reverse transcriptase activity of the virions was not a result of a direct inhibition of reverse transcriptase activity per se, as incubation of either compound directly with purified reverse transcriptase from either avian myeloblastosis virus or murine leukemia virus had no effect on enzyme activity. Furthermore, aliquots of HIV derived from these H9 cell cultures lost the ability to replicate in culture when exposed to as little as 0.77 micrograms/ml of hypericin.
# [2] = biological target: purified reverse transcriptase from murine leukemia virus (Moloney murine leukemia virus isolate Shinnick, UniProt P03355); assay: Direct incubation with purified reverse transcriptase; type: biochemical
# Method: as §2
# [3] = test system: purified reverse transcriptase from avian myeloblastosis virus; assay: as above; type: biochemical
# Method: as §2
# HIV [4] = assay: Inhibition of HIV induced syncytia formation / cell fusion (summary over the assays); type: cell-based, Human Immunodeficiency Virus (HIV)
# Method: as §1
# HIV-2 = assay: Syncytia assay, HUT78 cells infected with ROD-2 isolate co-cultured with H9 cells; type: cell-based; details: 24 hours
# Method: as §1
# HIV-1 env = assay: Syncytia assay, cell line expressing only envelope proteins of HIV-1 IIIb with Supt-1 cells; type: cell-based; details: 24 hours
# Method: as §1
# Also tested in a syncytia assay was a constructed cell line expressing only the envelope proteins of HIV-1 type IIIb isolate (Walker, B. D. et al., supra). These cells, designated HIV-1 env in Table 6, were treated with the indicated concentrations of Ps or Hy and incubated with uninfected Supt-1 target cells as above.
# HIV [5] = details: cited from earlier work
compound,measurement,setting,value
Cc1cc(O)c2c(=O)c3c(O)cc(O)c4c5c(O)cc(O)c6c(=O)c7c(O)cc(CO)c8c1c2c(c34)c(c65)c78 [pseudohypericin],"syncytia score (number 0-4, size S/M/L)",HIV-1; 12 nanograms,4 L
same,"syncytia score (number 0-4, size S/M/L)",HIV-1; 24 nanograms,4 L
same,"syncytia score (number 0-4, size S/M/L)",HIV-1; 47 nanograms,4 L
same,"syncytia score (number 0-4, size S/M/L)",HIV-1; 94 nanograms,4 L
same,"syncytia score (number 0-4, size S/M/L)",HIV-1; 188 nanograms,4 L
same,"syncytia score (number 0-4, size S/M/L)",HIV-1; 375 nanograms,4 L
same,"syncytia score (number 0-4, size S/M/L)",HIV-1; 750 nanograms,4 L
same,"syncytia score (number 0-4, size S/M/L)",HIV-1; 1500 nanograms,3 M
same,"syncytia score (number 0-4, size S/M/L)",HIV-1; 3000 nanograms,1S
same,IC100,HIV [1],> 100 µg/mL
same,effect on enzyme activity of purified reverse transcriptase,[2],no effect
same,effect on enzyme activity of purified reverse transcriptase,[3],no effect
same,inhibition of cell fusion,HIV [4]; compared with hypericin,effective but at substantially higher
same,dose needed for similar inhibition relative to hypericin,HIV [4]; syncytia formation,20-60 fold
same,"syncytia score (number 0-4, size S/M/L)",HIV-2; 12 nanograms,4 L
same,"syncytia score (number 0-4, size S/M/L)",HIV-2; 24 nanograms,4 L
same,"syncytia score (number 0-4, size S/M/L)",HIV-2; 47 nanograms,4 L
same,"syncytia score (number 0-4, size S/M/L)",HIV-2; 94 nanograms,4 L
same,"syncytia score (number 0-4, size S/M/L)",HIV-2; 188 nanograms,4 L
same,"syncytia score (number 0-4, size S/M/L)",HIV-2; 375 nanograms,4 L
same,"syncytia score (number 0-4, size S/M/L)",HIV-2; 750 nanograms,3 M
same,"syncytia score (number 0-4, size S/M/L)",HIV-2; 1500 nanograms,2S
same,"syncytia score (number 0-4, size S/M/L)",HIV-2; 3000 nanograms,2S
same,"syncytia score (number 0-4, size S/M/L)",HIV-1 env; 12 nanograms,4 L
same,"syncytia score (number 0-4, size S/M/L)",HIV-1 env; 24 nanograms,4 L
same,"syncytia score (number 0-4, size S/M/L)",HIV-1 env; 47 nanograms,4 L
same,"syncytia score (number 0-4, size S/M/L)",HIV-1 env; 94 nanograms,4 L
same,"syncytia score (number 0-4, size S/M/L)",HIV-1 env; 188 nanograms,4 L
same,"syncytia score (number 0-4, size S/M/L)",HIV-1 env; 375 nanograms,4 L
same,"syncytia score (number 0-4, size S/M/L)",HIV-1 env; 750 nanograms,4 L
same,"syncytia score (number 0-4, size S/M/L)",HIV-1 env; 1500 nanograms,3 L
same,"syncytia score (number 0-4, size S/M/L)",HIV-1 env; 3000 nanograms,1S
nonylphenoxypolyethoxyethanol [Nonoxynol-9],concentration effective against free virus,HIV [5],> 0.05 % (vol/vol)
